Each compound was assayed against T1, human MPO (Homo sapiens, UniProt P05164) (assay: MPO inhibition screen (TMB oxidation, absorbance)). Settings: in the presence of tyrosine (final 8 μM); human MPO 2.5 nM; H2O2 100 μM.
T1 sequence (P05164 49-745): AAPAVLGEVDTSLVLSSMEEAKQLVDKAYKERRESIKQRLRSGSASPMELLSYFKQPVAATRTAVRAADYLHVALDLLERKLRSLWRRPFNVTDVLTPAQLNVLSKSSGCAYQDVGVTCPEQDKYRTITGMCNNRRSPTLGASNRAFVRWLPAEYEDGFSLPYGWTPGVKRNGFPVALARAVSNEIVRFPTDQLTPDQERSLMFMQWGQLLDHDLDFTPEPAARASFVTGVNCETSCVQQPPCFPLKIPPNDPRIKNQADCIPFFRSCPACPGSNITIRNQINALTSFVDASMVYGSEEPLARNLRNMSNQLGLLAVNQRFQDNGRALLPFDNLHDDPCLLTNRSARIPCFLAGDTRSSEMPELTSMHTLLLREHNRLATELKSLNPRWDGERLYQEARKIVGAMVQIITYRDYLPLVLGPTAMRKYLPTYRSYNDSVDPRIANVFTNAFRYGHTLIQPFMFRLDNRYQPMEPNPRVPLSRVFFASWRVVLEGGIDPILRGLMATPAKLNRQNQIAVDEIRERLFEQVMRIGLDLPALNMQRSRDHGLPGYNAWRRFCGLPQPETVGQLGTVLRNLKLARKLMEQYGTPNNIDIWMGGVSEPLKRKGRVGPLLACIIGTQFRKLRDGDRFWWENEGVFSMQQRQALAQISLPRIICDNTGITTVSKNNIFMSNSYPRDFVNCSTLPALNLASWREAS
Assay type: biochemical
Description: Methods for the determination of MPO inhibitory activity are disclosed in patent application WO 02/090575. The pharmacological activity of compounds according to the invention was tested in the following screen in which the compounds were either tested alone or in the presence of added tyrosine:
Assay buffer: 20 mM sodium/potassium phosphate buffer pH 6.5 containing 10 mM taurine and 100 mM NaCl.
Developing reagent: 2 mM 3,3′,5,5′-tetramethylbenzidine (TMB), 200 μM KI, 200 mM acetate buffer pH 5.4 with 20% DMF.
To 10 μl of diluted compounds in assay buffer, 40 μl of human MPO (final concentration 2.5 nM), with or without 20 μM tyrosine (final concentration, if present, 8 μM), was added and the mixture was incubated for 10 minutes at ambient temperature. Then 50 μl of H2O2 (final concentration 100 μM), or assay buffer alone as a control, were added. After incubation for 10 minutes at ambient temperature, the reaction was stopped by adding 10 μl 0.2 mg/ml of catalase (final concentration 18 μg/ml). The reaction mixture was left for an additional 5 minutes before 100 μl of TMB developing reagent was added. The amount of oxidised 3,3′,5,5′-tetramethylbenzidine formed was then measured after about 5 minutes using absorbance spectroscopy at about […]. IC50 values were then determined using standard procedures.
`CC(C)Cn1c(=S)[nH]c(=O)c2[nH]ccc21` [Example 2, 1-Isobutyl-2-thioxo-1,2,3,5-tetrahydro-pyrrolo[3,2-d]pyrimidin-4-one] showed an IC50 of 260 nM. Work on `CCCOc1cccc(Cn2c(=S)[nH]c(=O)c3[nH]ccc32)c1OCCOC` [Example 5, 1-[2-(2-Methoxyethoxy)-3-propoxybenzyl]-2-thioxo-1,2,3,5-tetrahydro-pyrrolo[3,2-d]pyrimidin-4-one] yielded an IC50 of 220 nM. `CCOC(C)(C)Cn1c(=S)[nH]c(=O)c2[nH]ccc21` [Example 11, 1-(2-Ethoxy-2-methylpropyl)-2-thioxo-1,2,3,5-tetrahydro-pyrrolo[3,2-d]pyrimidin-4-one] gave an IC50 of 1100 nM.

Reference: patent publication US9580429B2, “Pyrrolo[3,2-D]pyrimidin-4-one derivatives and their use in therapy” (ASTRAZENECA AB, priority 2004, dated 2017)
